Data published in patent publication US20150218212A1, “FLUORINATED EPOXYKETONE-BASED TETRAPEPTIDE COMPOUNDS AND USES THEREOF AS PROTEASOME INHIBITORS” (FLUORINOV PHARMA INC., priority 2012, published 2015).

What was measured:
Type in all cases: cell-based, human
[1] = test system: NCI-H23; assay: NCI screening panel, NCI-H23 (Non-Small Cell Lung Cancer)
Experimental: (§1) Representative compounds of Formula I were screened using the National Cancer Institute (NCI) screening panel, which consists of a panel of human tumor cell lines, representing leukemia, melanoma, and cancers of the lung, colon, ovary, breast, prostate and renal system.
(§2) After 24 h, two plates of each cell line are fixed in situ with TCA, to represent a measurement of the cell population for each cell line at the time of drug addition (Tz). Experimental drugs are solubilised in dimethyl sulfoxide at 400-fold the desired final maximum test concentration and stored frozen prior to use. At the time of drug addition, an aliquot of frozen concentrate is thawed and diluted to twice the desired final maximum test concentration with complete medium containing 50 μg/mL gentamicin. Additional four, 10-fold or ½ log serial dilutions are made to provide a total of five drug concentrations plus control. Aliquots of 100 μl of these different drug dilutions are added to the appropriate microtiter wells already containing 100 μl of medium, resulting in the required final drug concentrations.
(§3) Following drug addition, the plates are incubated for an additional 48 h at 37° C., 5% CO2, 95% air, and 100% relative humidity. For adherent cells, the assay is terminated by the addition of cold TCA (trichloroacetic acid). Cells are fixed in situ by the gentle addition of 50 μl of cold 50% (w/v) TCA (final concentration, 10% TCA) and incubated for 60 minutes at 4° C. The supernatant is discarded, and the plates are washed five times with tap water and air dried. Sulforhodamine B (SRB) solution (100 μl) at 0.4% (w/v) in 1% acetic acid is added to each well, and plates are incubated for 10 minutes at room temperature. After staining, unbound dye is removed by washing five times with 1% acetic acid and the plates are air dried. Bound stain is subsequently solubilised with 10 mM trizma base, and the absorbance is read on an automated plate reader at a wavelength of 515 nm. For suspension cells, the methodology is the same except that the assay is terminated by fixing settled cells at the bottom of the wells by gently adding 50 μl of 80% TCA (final concentration, 16% TCA). Using the seven absorbance measurements [time zero, (Tz), control growth, (C), and test growth in the presence of drug at the five concentration levels (Ti)], the percentage growth is calculated at each of the drug concentrations levels. Percentage growth inhibition is calculated as: [(Ti−Tz)/(C−Tz)]×100 for concentrations for which Ti>/=Tz and [(Ti−Tz)/Tz]×100 for concentrations for which Ti<Tz.
(§4) Three dose response parameters are calculated for each experimental agent. Growth inhibition of 50% (GI50) is calculated from [(Ti−Tz)/(C−Tz)]×100=50, which is the drug concentration resulting in a 50% reduction in the net protein increase (as measured by SRB staining) in control cells during the drug incubation. The drug concentration resulting in total growth inhibition (TGI) is calculated from Ti=Tz. The LC50 (concentration of drug resulting in a 50% reduction in the measured protein at the end of the drug treatment as compared to that at the beginning) indicating a net loss of cells following treatment is calculated from [(Ti−Tz)/Tz]×100=−50. Values are calculated for each of these three parameters if the level of activity is reached. However, if the effect is not reached or is exceeded, the value for that parameter is expressed as greater or less than the maximum or minimum concentration tested.

[2] = test system: UACC-257; assay: NCI screening panel, UACC-257 (Melanoma)
Experimental: as §1, §2, §3, §4

[3] = test system: SF-539; assay: NCI screening panel, SF-539 (CNS Cancer)
Experimental: as §1, §2, §3, §4

[4] = test system: HCT-15; assay: NCI screening panel, HCT-15 (Colon Cancer)
Experimental: as §1, §2, §3, §4

[5] = test system: RPMI-8226; assay: NCI screening panel, RPMI-8226 (Leukemia)
Experimental: as §1, §2, §3, §4

[6] = test system: SF-268; assay: NCI screening panel, SF-268 (CNS Cancer)
Experimental: as §1, §2, §3, §4

[7] = test system: UACC-62; assay: NCI screening panel, UACC-62 (Melanoma)
Experimental: as §1, §2, §3, §4

[8] = test system: LOX IMVI; assay: NCI screening panel, LOX IMVI (Melanoma)
Experimental: as §1, §2, §3, §4

[9] = test system: SN12C; assay: NCI screening panel, SN12C (Renal Cancer)
Experimental: as §1, §2, §3, §4

[10] = test system: SK-MEL-2; assay: NCI screening panel, SK-MEL-2 (Melanoma)
Experimental: as §1, §2, §3, §4

[11] = test system: SR; assay: NCI screening panel, SR (Leukemia)
Experimental: as §1, §2, §3, §4

[12] = test system: HCT-116; assay: NCI screening panel, HCT-116 (Colon Cancer)
Experimental: as §1, §2, §3, §4

[13] = test system: M14; assay: NCI screening panel, M14 (Melanoma)
Experimental: as §1, §2, §3, §4

[14] = test system: BT-549; assay: NCI screening panel, BT-549 (Breast Cancer)
Experimental: as §1, §2, §3, §4

[15] = test system: U251; assay: NCI screening panel, U251 (CNS Cancer)
Experimental: as §1, §2, §3, §4

[16] = test system: NCI-H522; assay: NCI screening panel, NCI-H522 (Non-Small Cell Lung Cancer)
Experimental: as §1, §2, §3, §4

[17] = test system: A549/ATCC; assay: NCI screening panel, A549/ATCC (Non-Small Cell Lung Cancer)
Experimental: as §1, §2, §3, §4

[18] = test system: HCC-2998; assay: NCI screening panel, HCC-2998 (Colon Cancer)
Experimental: as §1, §2, §3, §4

[19] = test system: SK-OV-3; assay: NCI screening panel, SK-OV-3 (Ovarian Cancer)
Experimental: as §1, §2, §3, §4

CC(C)C[C@H](NC(=O)[C@H](COC(F)F)NC(=O)CN1CCOCC1)C(=O)N[C@@H](Cc1ccccc1)C(=O)N[C@@H](Cc1ccccc1)C(=O)[C@@]1(C)CO1 [Example 3, (2S)-N-[(1S)-1-benzyl-2-[[(1S)-1-benzyl-2-[(2R)-2-methyloxiran-2-yl]-2-oxo-ethyl]amino]-2-oxo-ethyl]-2-[[(2S)-3-(difluoromethoxy)-2-[(2-morpholinoacetyl)-amino]propanoyl]amino]-4-methyl-pentan-amide]
Log10GI50 [1]: <−8.00
Log10LC50 [1]: −4.33
Log10TGI50 [1]: −6.69
Log10GI50 [2]: −7.23
Log10LC50 [2]: −4.53
Log10TGI50 [2]: −6.40
Log10GI50 [3]: <−8.00
Log10LC50 [3]: −4.07
Log10TGI50 [3]: −7.42
Log10GI50 [4]: −6.51
Log10LC50 [4]: >−4.00
Log10TGI50 [4]: >−4.00
Log10GI50 [5]: <−8.00
Log10LC50 [5]: >−4.00
Log10TGI50 [5]: −7.48
Log10GI50 [6]: <−8.00
Log10LC50 [6]: −4.98
Log10TGI50 [6]: −7.40
Log10GI50 [7]: −7.93
Log10LC50 [7]: −6.13
Log10TGI50 [7]: −7.17
Log10GI50 [8]: <−8.00
Log10LC50 [8]: −7.13
Log10TGI50 [8]: −7.71
Log10GI50 [9]: −7.68
Log10LC50 [9]: −6.24
Log10TGI50 [9]: −6.85
Log10GI50 [10]: −7.92
Log10LC50 [10]: >−4.00
Log10TGI50 [10]: −7.19
Log10GI50 [11]: <−8.00
Log10LC50 [11]: >−4.00
Log10TGI50 [11]: >−4.00
Log10GI50 [12]: <−8.00
Log10LC50 [12]: >−4.00
Log10TGI50 [12]: −7.34
Log10GI50 [13]: −7.69
Log10LC50 [13]: >−4.00
Log10TGI50 [13]: −6.54
Log10GI50 [14]: <−8.00
Log10LC50 [14]: −4.21
Log10TGI50 [14]: −7.32
Log10GI50 [15]: <−8.00
Log10LC50 [15]: −5.14
Log10TGI50 [15]: −6.79
Log10GI50 [16]: <−8.00
Log10LC50 [16]: −6.18
Log10TGI50 [16]: −7.55
Log10GI50 [17]: −7.65
Log10LC50 [17]: >−4.00
Log10TGI50 [17]: >−4.00
Log10GI50 [18]: −7.78
Log10LC50 [18]: −7.18
Log10TGI50 [18]: −7.48
Log10GI50 [19]: −7.26
Log10LC50 [19]: >−4.00
Log10TGI50 [19]: −6.16
